Here are results for 14 molecules from patent US4738971A, “N-aryl-1,2-dihydro-4-substituted-1-alkyl-2-oxo-quinoline-3-carboxamides” (priority 1981, dated 1988).

Structures are written as SMILES.

The first experiment concerns delayed hypersensitivity reaction (pertussis vaccine pleurisy). The experiment in a line: pertussis vaccine pleurisy test in rats. It counts as in vivo, rat (male Sprague-Dawley). To be noted: 10 mg/kg p.o. An excerpt:
A useful test for the evaluation of the effect of chemical compounds on the immune system is the pertussis vaccine pleurisy test in rats. Compounds which enhance the response in this delayed hypersensitivity reaction are considered to stimulate cell-mediated immunity (4).
This example illustrates the effect of the compounds of the general formula I in the pertussis vaccine pleurisy test.
Pertussis vaccine pleurisy is a useful test for the evaluation of the effect of chemical compounds on the immune system. Compounds which enhance the response in this delayed hypersensitivity reaction are considered to stimulate cell-mediated immunity.
A modification of a method described in (4) was used. Male Sprague-Dawley rats weighing 250-275 g were used. At least ten animals were used in each group.
Equal volumes of Freund's incomplete adjuvant and a suspension of heat killed Bordetella pertussis organisms were mixed. To sensitize animals, day 0, 0.2 ml of a mixture containing 0.036×10^10 organisms/ml was injected into the dorsal surface of one hind paw and one forepaw.
The animals were challenged on day 12 with 0.1 ml of a mixture containing 0.25×10^10 organisms/ml that was injected intrapleurally. 48 hours after challenge, day 14, the volume of the exudate in the pleural cavity was measured.
The substances suspended in aqueous methocel solution 10 ml/kg were given intragastrically once daily from day 10 to day 13. The control groups were given methocel solution 10 ml/kg.
The effect of the substances was assessed by the exudate volume expressed in percent after comparison with the control groups.
For `Cn1c(=O)c(C(=O)Nc2ccc(O)cc2)c(O)c2ccccc21` [1:13, N-/4-hydroxyphenyl/-1,2-dihydro-4-hydroxy-1-methyl-2-oxo-quinoline-3-carboxamide], the “significant enhancing effect in the pertussis vaccine pleurisy test” value is on record as “significant enhancing effect”.

In the case of `CN(C(=O)c1c(N)c2ccccc2n(C)c1=O)c1ccccc1` [10:5, N-methyl-N-phenyl-4-amino-1,2-dihydro-1-methyl-2-oxo-quinoline-3-carboxamide], the “significant enhancing effect in the pertussis vaccine pleurisy test” value is reported as “significant enhancing effect”.

Regarding `CNc1c(C(=O)N(C)c2ccccc2)c(=O)n(C)c2ccccc12` [10:6, N-methyl-N-phenyl-1,2-dihydro-1-methyl-4-methylamino-2-oxo-quinoline-3-carboxamide], the “significant enhancing effect in the pertussis vaccine pleurisy test” value is recorded as “significant enhancing effect”.

Regarding `COc1ccc(N(C)C(=O)c2c(N)c3ccccc3n(C)c2=O)cc1` [10:12, N-(4-methoxyphenyl)-N-methyl-4-amino-1,2-dihydro-1-methyl-2-oxo-quinoline-2-carboxamide], the “significant enhancing effect in the pertussis vaccine pleurisy test” value is recorded as “significant enhancing effect”.

Take `CN(C(=O)c1c(N)c2ccccc2n(C)c1=O)c1ccc(Cl)cc1` [10:13, N-(4-chlorophenyl)-N-methyl-4-amino-1,2-dihydro-1-methyl-2-oxo-quinoline-3-carboxamide]: the “significant enhancing effect in the pertussis vaccine pleurisy test” value is given as “significant enhancing effect”.

Take `CN(C(=O)c1c(N)c2ccccc2n(C)c1=O)c1nccs1` [10:17, N-methyl-N-(2-thiazolyl)-4-amino-1,2-dihydro-1-methyl-2-oxo-quinoline-3-carboxamide]: the “significant enhancing effect in the pertussis vaccine pleurisy test” value is “significant enhancing effect”.

Take `Nc1c(C(=O)Nc2ccccc2)c(=O)n2c3c(cccc13)CC2` [10:20, N-phenyl-4-amino-1,2-dihydro-1,8-ethylene-2-oxo-quinoline-3-carboxamide]: the “significant enhancing effect in the pertussis vaccine pleurisy test” value is listed as “significant enhancing effect”.

Regarding `CN(C(=O)c1c(O)c2cccc3c2n(c1=O)CCC3)c1ccccc1` [19:1, N-methyl-N-phenyl-1,2-dihydro-4-hydroxy-2-oxo-1,8-trimethylene-quinoline-3-carboxamide], the “significant enhancing effect in the pertussis vaccine pleurisy test” value is “significant enhancing effect”.

With `CN(C(=O)c1c(O)c2cccc3c2n(c1=O)CCC3)c1ccc(F)cc1` [19:2, N-(4-fluorophenyl)-N-methyl-1,2-dihydro-hydroxy-2-oxo-1,8-trimethylene-quinoline-3-carboxamide], the “significant enhancing effect in the pertussis vaccine pleurisy test” value is given as “significant enhancing effect”.

For `C=CCn1c(=O)c(C(=O)N(C)c2ccccc2)c(O)c2ccccc21` [20:1, N-methyl-N-phenyl-1,2-dihydro-1-allyl-4-hydroxy-2-oxo-quinoline-3-carboxamide], the “significant enhancing effect in the pertussis vaccine pleurisy test” value was “significant enhancing effect”.

The same experiment, now with this note: Rattus norvegicus, po, 48 h; 10 mg/kg p.o., once daily day 10 to day 13, vs control; preliminary; read-out: Enhancement of the delayed hypersensitivity reaction assessed by the exudate vol.
In the case of `Cc1ccc(-n2c(=O)c(C(=O)Nc3ccccc3)c(O)c3ccccc32)cc1` [1:50, N-phenyl-1,2-dihydro-4-hydroxy-1-(4-methylphenyl)-2-oxo-quinoline-3-carboxamide], the change in vivo at 10 mg/kg worked out at 46%.

On to `Cc1cc(NC(=O)c2c(O)c3ccccc3n(C)c2=O)sn1` [7:28, N-(3-methyl-5-isothiazolyl)-1,2-dihydro-4-hydroxy-1-methyl-2-oxo-quinoline-3-carboxamide], for which the change in vivo at 10 mg/kg stood at 61%.

For the molecule `CN(C)c1ccc(NC(=O)c2c(O)c3cccc4c3n(c2=O)CCC4)cc1` [13:7, N-(4-dimethylaminophenyl)-1,2-dihydro-4-hydroxy-2-oxo-1,8-trimethylene-quinoline-3-carboxamide], the change in vivo at 10 mg/kg was found to be 21%.

As for `O=C(Nc1cnccn1)c1c(O)c2cccc3c2n(c1=O)CCC3` [14:17, N-pyrazinyl-1,2-dihydro-4-hydroxy-2-oxo-1,8-trimethylene-quinoline-3-carboxamide], the change in vivo at 10 mg/kg is 27%.
